ChEMBL document CHEMBL4020737, “Synthesis and cytotoxic activity of new artemisinin hybrid molecules against human leukemia cells” (Bioorg Med Chem, 2017)
Active and inactive are the calls of the source. No cut-off for these calls is given here.

Legend:
[1] = tested on: CCRF-CEM; test: Cytotoxicity against human CCRF-CEM cells assessed as reduction in cell viability after 72 hrs by resazurin reduction assay; assay type: functional, cell-based
[2] = tested on: ADR5000 cell line; test: Cytotoxicity against human CEM/ADR5000 cells assessed as reduction in cell viability after 72 hrs by resazurin reduction assay; assay type: functional, cell-based; conditions: ADR5000, 72 h
[3] = Resistance index, ratio of IC50 for human CEM/ADR5000 cells to IC50 for human CCRF-CEM cells; assay type: functional
[4] = tested on: ADR5000 cell line; test: Cytotoxicity against human CEM/ADR5000 cells assessed as reduction in cell viability at 400 uM after 72 hrs by resazurin reduction assay; assay type: functional, cell-based

SMILES | IC50 [1] [nM] | IC50 [2] [nM] | Ratio IC50 [3] | Activity [4]
COC(=O)CC[C@@H](C)[C@H]1CC[C@H]2[C@@H]3[C@H](OC(C)=O)C[C@@H]4C[C@H](NC(=O)C[C@H]5O[C@@H]6O[C@@]7(C)CC[C@H]8[C@H](C)CC[C@@H]([C@H]5C)[C@@]68OO7)CC[C@]4(C)[C@H]3C[C@H](OC(C)=O)[C@]12C | 19 | 345 | 18.2 | 
COC(=O)CC[C@@H](C)[C@H]1CC[C@H]2[C@@H]3[C@H](OC(C)=O)C[C@@H]4C[C@H](OC(=O)CCC(=O)O[C@@H]5O[C@@H]6O[C@@]7(C)CC[C@H]8[C@H](C)CC[C@@H]([C@H]5C)[C@@]68OO7)CC[C@]4(C)[C@H]3C[C@H](OC(C)=O)[C@]12C | 35 | 626 | 17.9 | 
COc1cccc2c1C(=O)c1c(O)c3c(c(O)c1C2=O)C[C@@](O)(C(=O)CO)C[C@@H]3O[C@H]1C[C@H](N)[C@H](O)[C@H](C)O1 [DOXORUBICIN] |  |  | 536.67 | 
C[C@H]1[C@@H](CCCO)O[C@@H]2O[C@@]3(C)CC[C@H]4[C@H](C)CC[C@@H]1[C@@]24OO3 |  |  |  | inactive
COC(=O)CC[C@@H](C)[C@H]1CC[C@H]2[C@@H]3[C@H](OC(C)=O)C[C@@H]4C[C@@H](OC(=O)C[C@H]5O[C@@H]6O[C@@]7(C)CC[C@H]8[C@H](C)CC[C@@H]([C@H]5C)[C@@]68OO7)CC[C@]4(C)[C@H]3C[C@H](OC(C)=O)[C@]12C | 28 | 1290 | 46.1 | 
COC(=O)CC[C@@H](C)[C@H]1CC[C@H]2[C@@H]3[C@H](OC(C)=O)C[C@@H]4C[C@@H](NC(=O)C[C@H]5O[C@@H]6O[C@@]7(C)CC[C@H]8[C@H](C)CC[C@@H]([C@H]5C)[C@@]68OO7)CC[C@]4(C)[C@H]3C[C@H](OC(C)=O)[C@]12C | 49 | 560 | 11.4 | 
CC(=O)O[C@H]1C[C@H]2[C@@H]([C@H](OC(C)=O)C[C@@H]3CC(=O)CC[C@@]32C)[C@@H]2CC[C@H]([C@H](C)CCC(=O)OCCC[C@H]3O[C@@H]4O[C@@]5(C)CC[C@H]6[C@H](C)CC[C@@H]([C@H]3C)[C@@]46OO5)[C@@]12C | 192 | 7160 | 37.3 | 
COC(=O)CC[C@@H](C)[C@H]1CC[C@H]2[C@@H]3[C@H](OC(C)=O)C[C@@H]4C[C@H](OC(=O)C[C@H]5O[C@@H]6O[C@@]7(C)CC[C@H]8[C@H](C)CC[C@@H]([C@H]5C)[C@@]68OO7)CC[C@]4(C)[C@H]3C[C@H](OC(C)=O)[C@]12C | 30 | 1250 | 41.8 | 
COC(=O)CC[C@@H](C)[C@H]1CC[C@H]2[C@@H]3[C@H](OC(C)=O)C[C@@H]4C[C@H](NC(=O)CCC(=O)O[C@@H]5O[C@@H]6O[C@@]7(C)CC[C@H]8[C@H](C)CC[C@@H]([C@H]5C)[C@@]68OO7)CC[C@]4(C)[C@H]3C[C@H](OC(C)=O)[C@]12C | 36 | 655 | 18.2 | 
COC(=O)CC[C@@H](C)[C@H]1CC[C@H]2[C@@H]3[C@H](OC(C)=O)C[C@@H]4C[C@@H](NC(=O)CCC(=O)O[C@@H]5O[C@@H]6O[C@@]7(C)CC[C@H]8[C@H](C)CC[C@@H]([C@H]5C)[C@@]68OO7)CC[C@]4(C)[C@H]3C[C@H](OC(C)=O)[C@]12C | 136 | 779 | 5.7 | 
COC(=O)CC[C@@H](C)[C@H]1CC[C@H]2[C@@H]3[C@H](OC(C)=O)C[C@@H]4C[C@@H](OC(=O)CCC(=O)O[C@@H]5O[C@@H]6O[C@@]7(C)CC[C@H]8[C@H](C)CC[C@@H]([C@H]5C)[C@@]68OO7)CC[C@]4(C)[C@H]3C[C@H](OC(C)=O)[C@]12C | 65 | 1180 | 18.1 | 
